Data taken from PubChem BioAssay (NCI).
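Method: 48-hour compound exposure of cells in 96-well plates, five concentrations, linear interpolation of endpoints. Abbreviation: GI50, concentration required for 50% inhibition of growth. TGI is the concentration that stops growth completely.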

Columns and labels:
Assay in all cases: DTP human tumour cell line panel, 48 h
SF-295 CNS = system: SF-295 CNS
HL-60(TB) leukemia = system: HL-60(TB) leukemia
MALME-3M melanoma = system: MALME-3M melanoma
CCRF-CEM leukemia = system: CCRF-CEM leukemia
OVCAR-4 ovarian = system: OVCAR-4 ovarian
MDA-MB-231 breast = system: MDA-MB-231 breast
HOP-92 NSCLC = system: HOP-92 NSCLC
SK-MEL-2 melanoma = system: SK-MEL-2 melanoma
NCI-H460 lung = system: NCI-H460 lung
HT29 colon = system: HT29 colon

SMILES | GI50 (SF-295 CNS) [nM] | TGI (SF-295 CNS) [µM] | GI50 (HL-60(TB) leukemia) [nM] | TGI (HL-60(TB) leukemia) [µM] | GI50 (MALME-3M melanoma) [nM] | TGI (MALME-3M melanoma) [µM] | GI50 (CCRF-CEM leukemia) [nM] | TGI (CCRF-CEM leukemia) [µM] | GI50 (OVCAR-4 ovarian) [nM] | TGI (OVCAR-4 ovarian) [µM] | GI50 (MDA-MB-231 breast) [nM] | TGI (MDA-MB-231 breast) [µM] | GI50 (HOP-92 NSCLC) [nM] | TGI (HOP-92 NSCLC) [µM] | GI50 (SK-MEL-2 melanoma) [nM] | TGI (SK-MEL-2 melanoma) [µM] | GI50 (NCI-H460 lung) [nM] | TGI (NCI-H460 lung) [µM] | GI50 (HT29 colon) [nM] | TGI (HT29 colon) [µM]
CC(CN(C)C)Oc1ccccc1NC1=C(Cl)C(=O)C(Nc2ccccc2OC(C)CN(C)C)=C(Cl)C1=O (stereo not given) | 1830 | 3.46 | 272 | 0.902 | 605 | 1.38 | 265 | 0.882 | 146 | 0.279 | 509 | 1.2 | 268 | 0.807 | 1340 | 2.89 | 1300 | 2.9 | 179 | 0.423
Cc1ccc(C(=O)/C(=C\c2ccc([N+](=O)[O-])cc2)S(=O)Cc2ccc(Cl)cc2)cc1 (stereo not given) | 1800 | 4.28 | 2470 | 6.82 | 1740 | 3.64 | 635 | > 100 | 1850 | 3.85 | 1860 | 3.88 | 1640 | 3.45 | 1960 | 4.15 | 1840 | 3.9 | 1880 | 4.3
Oc1ccc(C2c3ccccc3Oc3ccccc32)c2cccnc12 | 499 | > 100 | 1940 | > 100 | 2830 | 27.4 | 738 | > 100 | 2080 | > 100 | 4360 | > 100 | 1860 | 98.7 | 2310 | 69.5 | 470 | 5.1 | 1100 | > 100
CN1CCN(c2ccc(NC(=O)c3cncnc3Nc3ccc(OCc4ccccn4)c(Cl)c3)cc2)CC1 | 5980 | 13.1 | 4110 | 9.28 | 886 | 3.69 | 1860 | 10.5 | 4690 | 12.4 | 2000 | 6.56 | 3110 | 9.28 | 4740 | 11 | 2270 | 7.57 | 948 | 4.49
Cc1cc(-c2ccccn2)cc(C)c1/C=C/c1cncc(-c2nn[nH]n2)c1 | > 25000 | > 25 | > 25000 | > 25 | > 25000 | > 25 | > 25000 | > 25 | > 25000 | > 25 | > 25000 | > 25 | > 18400 | > 25 | > 25000 | > 25 | > 25000 | > 25 | > 25000 | > 25
C=C1C(=O)O[C@H]2[C@H]1CC/C(COC(=O)C(C)c1ccc(CC(C)C)cc1)=C\CC[C@@]1(C)O[C@@H]21 (stereo not given in full) | 2470 | 7.39 | 647 | 2.68 | 1560 | 2.99 | 228 | 1.03 | 1710 | 3.35 | 1380 | 2.73 | 747 | 2.14 | 1890 | 3.72 | 1560 | 3.16 | 1110 | 2.59
CC1=C(C(=O)Nc2cc(Cl)c3[nH]ncc3c2)C(c2ccc(C(F)(F)F)cc2)CC(=O)N1 (stereo not given) | 8600 | > 25 | > 21200 | > 25 | 13100 | > 25 | 13800 | > 25 | > 25000 | > 25 | 13700 | > 25 | 145 | > 25 | > 25000 | > 25 | > 25000 | > 25 | > 25000 | > 25
C=C(CO)[C@@H]1CC[C@]2(COC3CCCCO3)CC[C@]3(C)[C@H](CC[C@@H]4[C@@]5(C)C=C(C=O)C(=O)C(C)(C)[C@@H]5CC[C@]43C)[C@@H]12 (stereo not given in full) | 506 | 1.79 | 250 | 0.994 | 222 | 0.544 | 211 | 1.12 | 298 | 0.979 | 214 | 0.565 | 147 | 0.312 | 448 | 1.82 | 500 | 1.75 | 327 | 1.1
O=C(N/N=C/c1ccc(O)cc1O)c1cccc(Nc2ccnc(C(F)(F)F)c2)c1 | 1880 | 45.8 | 472 | 2.98 | 1320 | 11.5 | 257 | 2.14 | 573 | 51.5 | 1080 | 51.8 | 3440 | > 48.2 | 7390 | 27.1 | 3060 | 11.3 | 5140 | > 100
COC(=O)c1cc2c3ccccc3[nH]c2c2sccc12 | 8570 | 48.7 | > 100000 | > 100 | 29300 | 62.7 | 46000 | > 100 | 26500 | 76.9 | 5060 | 61.3 | 17200 | 99.7 | 40800 | > 100 | 20100 | 43.8 | 6960 | 18.7
CN(Cc1cc(Br)cc(Br)c1O)Cc1c(O)ccc2ccccc12 | – | 47.5 | – | 46.1 | – | 42.9 | – | 60.6 | – | 34.9 | – | 35.6 | – | 39.4 | – | 35.6 | – | 54.2 | – | 37.8
Cc1cc2c(C(N)=O)c(N)n(-c3c(C)ccc(O)c3C)c2nc1C | 871 | 35.4 | 4400 | > 100 | 3080 | 18.3 | 2650 | > 100 | 998 | 8.03 | 2120 | 13.9 | 1000 | 14.1 | 3590 | 21.2 | 4770 | 31.2 | 585 | > 100
O=C1C2CCN(CC2)C1(CO)CO | – | > 100 | – | > 78.6 | – | 36.6 | – | 32.2 | – | 43 | – | 44 | – | 46.6 | – | > 100 | – | > 100 | – | 73.7
O=C1OC(=O)C2CCCC3CCCC1C32 (stereo not given) | – | > 100 | – | > 100 | – | > 100 | – | > 100 | – | > 100 | – | > 100 | – | > 100 | – | > 100 | – | > 100 | – | > 100
CC1(N)CCN(c2cnc(-c3cccc(Cl)c3Cl)c(N)n2)CC1 | 11100 | 27.2 | 41900 | > 100 | 16400 | 32.1 | 23200 | > 100 | 7470 | > 100 | 18200 | 48.7 | 553 | 5.44 | 20100 | 46.4 | 32700 | > 100 | 26700 | > 100
CC(=[N-])N1CCC[C@@H](Nc2c3ccccc3nc3ccccc23)C1.[Cl][Pt].[NH-]CCC[NH-] | 384 | > 100 | 2040 | > 100 | 1490 | 4.51 | 1580 | > 100 | 1250 | 38.9 | 2100 | 89.1 | 2210 | 8.36 | 2280 | 7.23 | 27.7 | > 40.8 | 440 | > 100
